Results on ten compounds are retold here after ChEMBL document CHEMBL5291721, “A preclinical secondary pharmacology resource illuminates target-adverse drug reaction associations of marketed drugs” (Nat Commun, 2023).

SMILES strings stand for the structures.

The target in experiment [1] is T1, Alpha-2B adrenergic receptor (Homo sapiens, UniProt P18089).
T1 sequence (P18089 whole entry): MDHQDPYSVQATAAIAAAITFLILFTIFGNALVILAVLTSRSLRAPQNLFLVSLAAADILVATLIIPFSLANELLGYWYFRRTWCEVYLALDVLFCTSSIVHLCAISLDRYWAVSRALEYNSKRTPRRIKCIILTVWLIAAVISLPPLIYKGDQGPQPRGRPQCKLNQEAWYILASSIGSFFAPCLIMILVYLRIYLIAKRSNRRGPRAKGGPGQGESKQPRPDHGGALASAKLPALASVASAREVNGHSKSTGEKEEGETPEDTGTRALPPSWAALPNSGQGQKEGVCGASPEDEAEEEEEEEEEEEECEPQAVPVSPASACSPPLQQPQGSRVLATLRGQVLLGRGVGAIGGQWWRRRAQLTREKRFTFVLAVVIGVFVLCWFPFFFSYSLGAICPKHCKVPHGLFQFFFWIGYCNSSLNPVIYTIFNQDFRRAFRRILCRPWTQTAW

For experiment [2], the target named is T2, Alpha-2C adrenergic receptor (Homo sapiens, UniProt P18825).
T2 sequence (P18825 whole entry): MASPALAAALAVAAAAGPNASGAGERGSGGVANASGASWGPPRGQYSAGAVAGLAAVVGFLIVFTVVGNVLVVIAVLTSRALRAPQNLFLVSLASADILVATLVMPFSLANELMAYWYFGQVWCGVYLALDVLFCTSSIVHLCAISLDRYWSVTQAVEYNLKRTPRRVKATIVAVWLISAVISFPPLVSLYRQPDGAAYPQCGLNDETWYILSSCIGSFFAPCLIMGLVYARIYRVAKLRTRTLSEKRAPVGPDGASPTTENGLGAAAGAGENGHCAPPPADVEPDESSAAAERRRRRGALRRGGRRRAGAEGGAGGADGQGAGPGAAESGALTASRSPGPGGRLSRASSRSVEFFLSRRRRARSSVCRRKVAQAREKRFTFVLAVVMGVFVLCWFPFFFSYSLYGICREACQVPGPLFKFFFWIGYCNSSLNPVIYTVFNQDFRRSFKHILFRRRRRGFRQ
It counts as functional.

Experiment [3] addresses Beta-1 adrenergic receptor (Homo sapiens, UniProt P08588). It counts as functional.
Experiment [4] deals with Histamine H1 receptor (Homo sapiens, UniProt P35367).
Experiment [5] deals with 5-hydroxytryptamine receptor 2A (Homo sapiens, UniProt P28223). It is filed as functional, cell-based.
For experiment [6], the target named is T3, 5-hydroxytryptamine receptor 2B (Homo sapiens, UniProt P41595). It counts as functional, cell-based.
The target in experiment [7] is T3, 5-hydroxytryptamine receptor 2B. It is filed as functional, cell-based. This is another data set of the same source.
The target in experiment [8] is Voltage-gated inwardly rectifying potassium channel KCNH2 (Homo sapiens, UniProt Q12809). It counts as functional. As to conditions: read-out: AC50.
The target of experiment [9] is T4, Neuropeptide Y receptor type 1 (Homo sapiens, UniProt P25929).
T4 sequence (P25929 whole entry): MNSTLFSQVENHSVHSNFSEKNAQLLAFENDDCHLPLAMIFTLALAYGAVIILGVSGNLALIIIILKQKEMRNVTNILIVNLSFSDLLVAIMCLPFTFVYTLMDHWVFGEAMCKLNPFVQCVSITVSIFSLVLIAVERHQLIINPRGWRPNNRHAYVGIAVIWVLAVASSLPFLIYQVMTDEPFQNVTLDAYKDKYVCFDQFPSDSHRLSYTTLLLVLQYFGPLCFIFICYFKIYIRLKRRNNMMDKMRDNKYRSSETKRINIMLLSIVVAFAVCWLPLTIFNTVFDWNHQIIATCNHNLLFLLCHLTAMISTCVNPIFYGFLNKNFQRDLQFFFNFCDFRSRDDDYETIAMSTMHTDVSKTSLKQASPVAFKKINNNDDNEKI

Experiment [10] has as its target Kappa-type opioid receptor (Homo sapiens, UniProt P41145).
Experiment [11] has as its target T5, Equilibrative nucleoside transporter 1 (Homo sapiens, UniProt Q99808).
T5 sequence (Q99808 whole entry): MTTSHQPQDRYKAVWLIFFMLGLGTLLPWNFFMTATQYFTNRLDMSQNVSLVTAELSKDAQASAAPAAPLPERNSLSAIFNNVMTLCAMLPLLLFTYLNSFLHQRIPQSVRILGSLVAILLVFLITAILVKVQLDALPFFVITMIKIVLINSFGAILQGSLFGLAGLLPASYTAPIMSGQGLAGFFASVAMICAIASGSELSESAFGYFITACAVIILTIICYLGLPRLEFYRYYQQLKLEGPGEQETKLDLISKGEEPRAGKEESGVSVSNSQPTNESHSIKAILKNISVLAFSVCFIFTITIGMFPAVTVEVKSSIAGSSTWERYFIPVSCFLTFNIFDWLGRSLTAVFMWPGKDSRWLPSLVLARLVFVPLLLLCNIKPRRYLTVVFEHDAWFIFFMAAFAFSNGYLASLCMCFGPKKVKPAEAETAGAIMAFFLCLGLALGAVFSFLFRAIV

Experiment [12] has as its target Sodium-dependent serotonin transporter (Homo sapiens, UniProt P31645).
For experiment [13], the target named is cGMP-inhibited 3',5'-cyclic phosphodiesterase 3A (Homo sapiens, UniProt Q14432). It counts as functional.
Experiment [14] addresses D(3) dopamine receptor (Homo sapiens, UniProt P35462).
Note: assay procedure not described here.

Histamine H1 receptor, sequence (P35367 whole entry): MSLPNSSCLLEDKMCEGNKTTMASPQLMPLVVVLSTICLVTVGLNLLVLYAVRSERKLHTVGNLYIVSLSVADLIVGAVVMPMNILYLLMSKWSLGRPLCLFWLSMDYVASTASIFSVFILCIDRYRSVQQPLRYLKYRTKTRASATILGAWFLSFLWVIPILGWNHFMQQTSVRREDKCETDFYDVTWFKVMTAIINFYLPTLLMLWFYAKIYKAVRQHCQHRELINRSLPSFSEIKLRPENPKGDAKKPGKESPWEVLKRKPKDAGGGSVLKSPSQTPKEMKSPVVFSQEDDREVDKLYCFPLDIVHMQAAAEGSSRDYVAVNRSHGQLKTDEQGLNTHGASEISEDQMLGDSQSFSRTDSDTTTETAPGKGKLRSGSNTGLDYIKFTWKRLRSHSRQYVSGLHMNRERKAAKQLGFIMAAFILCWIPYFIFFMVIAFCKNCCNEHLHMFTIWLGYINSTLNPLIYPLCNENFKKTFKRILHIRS
D(3) dopamine receptor, sequence (P35462 whole entry): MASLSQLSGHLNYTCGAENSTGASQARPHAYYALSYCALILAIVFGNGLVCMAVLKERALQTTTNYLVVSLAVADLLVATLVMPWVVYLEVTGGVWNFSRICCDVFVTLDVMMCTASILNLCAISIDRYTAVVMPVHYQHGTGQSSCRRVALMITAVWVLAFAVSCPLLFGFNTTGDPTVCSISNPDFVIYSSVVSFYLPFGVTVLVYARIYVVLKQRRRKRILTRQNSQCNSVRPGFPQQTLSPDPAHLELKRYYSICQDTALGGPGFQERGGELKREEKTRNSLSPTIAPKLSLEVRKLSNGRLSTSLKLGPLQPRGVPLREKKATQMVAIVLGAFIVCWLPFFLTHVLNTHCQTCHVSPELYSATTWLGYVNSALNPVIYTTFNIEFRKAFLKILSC
Beta-1 adrenergic receptor, sequence (P08588 whole entry): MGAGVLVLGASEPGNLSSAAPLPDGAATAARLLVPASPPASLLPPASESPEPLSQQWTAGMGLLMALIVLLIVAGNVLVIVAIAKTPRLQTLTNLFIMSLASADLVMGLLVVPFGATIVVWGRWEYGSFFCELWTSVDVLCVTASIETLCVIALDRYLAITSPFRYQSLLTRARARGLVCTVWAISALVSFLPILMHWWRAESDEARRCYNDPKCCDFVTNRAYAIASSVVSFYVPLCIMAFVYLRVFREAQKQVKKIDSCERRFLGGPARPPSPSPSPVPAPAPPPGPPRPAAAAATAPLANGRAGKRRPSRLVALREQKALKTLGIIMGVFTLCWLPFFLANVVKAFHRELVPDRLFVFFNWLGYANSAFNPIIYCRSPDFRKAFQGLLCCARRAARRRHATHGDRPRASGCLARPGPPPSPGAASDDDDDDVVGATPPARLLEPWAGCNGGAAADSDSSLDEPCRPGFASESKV
Sodium-dependent serotonin transporter, sequence (P31645 whole entry): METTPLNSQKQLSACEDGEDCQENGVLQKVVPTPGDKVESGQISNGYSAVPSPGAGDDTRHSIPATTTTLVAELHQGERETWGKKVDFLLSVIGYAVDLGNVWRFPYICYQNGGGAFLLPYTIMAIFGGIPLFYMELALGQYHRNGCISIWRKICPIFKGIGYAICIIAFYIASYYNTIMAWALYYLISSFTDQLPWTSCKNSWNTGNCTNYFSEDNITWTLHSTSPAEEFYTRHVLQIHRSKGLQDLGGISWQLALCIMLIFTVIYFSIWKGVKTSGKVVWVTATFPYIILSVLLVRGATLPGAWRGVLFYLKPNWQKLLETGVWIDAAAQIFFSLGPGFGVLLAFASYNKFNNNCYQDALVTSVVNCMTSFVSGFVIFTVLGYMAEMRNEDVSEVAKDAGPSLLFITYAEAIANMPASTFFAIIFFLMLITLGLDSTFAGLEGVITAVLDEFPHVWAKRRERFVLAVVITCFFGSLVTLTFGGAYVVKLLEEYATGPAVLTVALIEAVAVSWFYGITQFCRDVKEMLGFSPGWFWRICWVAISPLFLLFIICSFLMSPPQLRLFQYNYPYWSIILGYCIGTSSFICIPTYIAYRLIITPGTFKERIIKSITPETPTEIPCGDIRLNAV
T3 sequence (P41595 whole entry): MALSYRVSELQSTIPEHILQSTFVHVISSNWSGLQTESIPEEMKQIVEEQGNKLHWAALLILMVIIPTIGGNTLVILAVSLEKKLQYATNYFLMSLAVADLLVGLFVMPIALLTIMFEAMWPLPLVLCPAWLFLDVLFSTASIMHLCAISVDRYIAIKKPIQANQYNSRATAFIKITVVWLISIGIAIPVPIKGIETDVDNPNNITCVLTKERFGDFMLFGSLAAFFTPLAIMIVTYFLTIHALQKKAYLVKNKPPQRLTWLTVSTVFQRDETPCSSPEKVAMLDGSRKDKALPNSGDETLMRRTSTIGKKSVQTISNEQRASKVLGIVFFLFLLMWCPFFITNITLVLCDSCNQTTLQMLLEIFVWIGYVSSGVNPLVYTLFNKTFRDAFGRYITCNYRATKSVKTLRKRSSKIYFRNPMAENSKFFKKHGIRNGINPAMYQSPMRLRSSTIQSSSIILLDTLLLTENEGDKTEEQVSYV
Kappa-type opioid receptor, sequence (P41145 whole entry): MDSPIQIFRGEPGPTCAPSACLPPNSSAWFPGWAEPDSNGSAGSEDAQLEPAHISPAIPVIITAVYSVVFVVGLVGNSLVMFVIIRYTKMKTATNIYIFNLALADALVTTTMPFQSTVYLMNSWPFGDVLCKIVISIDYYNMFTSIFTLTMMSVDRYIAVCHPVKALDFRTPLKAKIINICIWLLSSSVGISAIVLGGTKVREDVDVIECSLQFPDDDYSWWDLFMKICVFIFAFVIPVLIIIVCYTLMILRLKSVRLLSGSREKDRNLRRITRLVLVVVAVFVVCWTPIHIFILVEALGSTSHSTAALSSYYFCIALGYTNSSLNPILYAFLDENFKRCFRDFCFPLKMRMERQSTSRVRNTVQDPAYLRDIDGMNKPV
Voltage-gated inwardly rectifying potassium channel KCNH2, sequence (Q12809 whole entry): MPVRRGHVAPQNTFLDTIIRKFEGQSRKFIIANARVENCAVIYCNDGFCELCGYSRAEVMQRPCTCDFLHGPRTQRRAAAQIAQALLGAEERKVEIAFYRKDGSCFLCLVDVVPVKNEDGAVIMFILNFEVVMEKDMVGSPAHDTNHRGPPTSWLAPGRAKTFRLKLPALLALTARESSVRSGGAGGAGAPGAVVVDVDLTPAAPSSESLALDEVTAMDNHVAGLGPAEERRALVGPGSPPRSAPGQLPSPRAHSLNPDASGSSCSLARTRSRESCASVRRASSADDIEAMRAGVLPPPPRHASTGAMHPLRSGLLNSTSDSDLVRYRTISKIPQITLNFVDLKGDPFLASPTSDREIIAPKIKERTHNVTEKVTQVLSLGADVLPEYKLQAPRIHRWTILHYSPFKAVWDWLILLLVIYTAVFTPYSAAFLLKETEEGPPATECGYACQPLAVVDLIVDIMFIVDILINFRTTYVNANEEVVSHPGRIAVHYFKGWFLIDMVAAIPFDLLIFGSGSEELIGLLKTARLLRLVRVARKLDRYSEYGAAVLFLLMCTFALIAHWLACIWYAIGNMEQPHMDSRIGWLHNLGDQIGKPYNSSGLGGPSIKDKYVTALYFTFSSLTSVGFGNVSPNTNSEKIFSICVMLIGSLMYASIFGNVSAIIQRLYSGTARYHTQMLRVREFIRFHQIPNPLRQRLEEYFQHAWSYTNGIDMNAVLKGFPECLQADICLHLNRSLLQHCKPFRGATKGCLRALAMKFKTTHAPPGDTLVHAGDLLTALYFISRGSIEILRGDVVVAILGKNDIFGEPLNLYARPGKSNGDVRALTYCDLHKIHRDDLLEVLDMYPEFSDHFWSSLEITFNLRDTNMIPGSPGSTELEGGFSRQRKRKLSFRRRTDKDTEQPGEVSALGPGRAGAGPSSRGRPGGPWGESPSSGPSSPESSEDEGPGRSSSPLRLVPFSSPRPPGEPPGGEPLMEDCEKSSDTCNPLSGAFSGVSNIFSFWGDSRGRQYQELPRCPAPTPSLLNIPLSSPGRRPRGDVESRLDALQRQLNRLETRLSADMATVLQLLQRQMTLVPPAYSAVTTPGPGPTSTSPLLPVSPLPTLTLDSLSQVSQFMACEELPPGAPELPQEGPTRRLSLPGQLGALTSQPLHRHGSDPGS
5-hydroxytryptamine receptor 2A, sequence (P28223 whole entry): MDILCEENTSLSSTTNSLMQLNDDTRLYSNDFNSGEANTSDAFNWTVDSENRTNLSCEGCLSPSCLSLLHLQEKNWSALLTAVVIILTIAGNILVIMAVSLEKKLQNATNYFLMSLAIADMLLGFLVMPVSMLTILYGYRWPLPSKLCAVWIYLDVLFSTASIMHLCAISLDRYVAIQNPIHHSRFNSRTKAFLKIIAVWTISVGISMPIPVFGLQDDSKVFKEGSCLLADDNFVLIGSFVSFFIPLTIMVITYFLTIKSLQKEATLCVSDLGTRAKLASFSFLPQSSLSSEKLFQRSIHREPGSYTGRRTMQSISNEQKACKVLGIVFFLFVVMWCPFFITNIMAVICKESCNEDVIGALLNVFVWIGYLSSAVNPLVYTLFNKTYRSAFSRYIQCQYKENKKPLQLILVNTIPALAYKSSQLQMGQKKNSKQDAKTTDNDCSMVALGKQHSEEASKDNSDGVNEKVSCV

Broadly, the AC50 is the midpoint of the concentration-response curve, whichever way the signal moves. On to `CCCN(CC)C(CC)C(=O)Nc1c(C)cccc1C` (stereo not given) [ETIDOCAINE], for which the AC50 in [1], in [2], in experiment [3], in experiment [4], in [5] and in experiment [6] was above 30 µM throughout. The AC50 in [7], in [8], in experiment [9], in experiment [10], in experiment [11] and in [12] was above 30 µM each time. Moreover, the AC50 in experiment [13] and in experiment [14] was above 30 µM each time.

Turning to `Nc1nc(F)nc2c1ncn2[C@@H]1O[C@H](COP(=O)(O)O)[C@@H](O)[C@@H]1O` [FLUDARABINE PHOSPHATE], the AC50 in [1], in experiment [2], in experiment [3], in experiment [4], in experiment [5] and in experiment [6] was above 30 µM in each case. Besides, the concentration at half-maximal activity (AC50) in experiment [7], in experiment [8], in experiment [9], in experiment [10], in experiment [11] and in [12] was above 30 µM throughout. The concentration at half-maximal activity (AC50) in experiment [13] and in [14] was above 30 µM throughout.

In the case of `O=C(O)c1ccccc1Nc1cccc(C(F)(F)F)c1` [FLUFENAMIC ACID], the half-maximal activity concentration (AC50) is above 10 µM in experiment [1]; above 10 µM in experiment [2]; above 10 µM in experiment [3]; 0.082 µM in experiment [4]; above 30 µM in [5]; above 30 µM in experiment [6]. Also, the AC50 in experiment [7], in experiment [8], in experiment [9], in experiment [10], in [11] and in [12] was above 30 µM each time. Besides, the AC50 is above 30 µM in experiment [13] and 3.5 µM in [14].

Regarding `O=C(O)c1ccccc1OP(=O)(O)O` [FOSFOSAL], the half-maximal activity concentration (AC50) in experiment [1], in experiment [2], in experiment [3], in experiment [4], in experiment [5] and in experiment [6] was above 30 µM in each case. In addition, the AC50 in experiment [7], in experiment [8], in experiment [9], in [10], in experiment [11] and in [12] was above 30 µM throughout. Besides, the concentration at half-maximal activity (AC50) was 9.8 µM in experiment [13] and above 30 µM in experiment [14].

With `CCCCCCOC(=O)CCC(=O)CN` [HEXAMINOLEVULINATE], the concentration at half-maximal activity (AC50) in experiment [1], in experiment [2], in experiment [3], in experiment [4], in experiment [5] and in experiment [6] was above 30 µM throughout. The AC50 in experiment [7], in experiment [8], in experiment [9], in experiment [10], in experiment [11] and in experiment [12] was above 30 µM each time. The AC50 in experiment [13] and in experiment [14] was above 30 µM throughout.

In the case of `CCCC[C@H](C)C[C@H](O)/C=C/[C@H]1[C@H](O)CC(=O)[C@@H]1CCCC/C=C/C(=O)O` [LIMAPROST], the AC50 in experiment [1], in experiment [2], in experiment [3], in [4], in experiment [5] and in experiment [6] was above 30 µM throughout. The concentration at half-maximal activity (AC50) in [7], in [8], in experiment [9], in experiment [10], in [11] and in experiment [12] was above 30 µM each time. Further, the AC50 in [13] and in [14] was above 30 µM each time.

In the case of `Cc1ccc(NC(=O)C2(c3ccc4c(c3)OC(F)(F)O4)CC2)nc1-c1cccc(C(=O)O)c1` [LUMACAFTOR], the AC50 in experiment [1], in experiment [2], in experiment [3], in experiment [4], in experiment [5] and in [6] was above 30 µM each time. The AC50 in experiment [7], in [8], in experiment [9], in experiment [10], in experiment [11] and in [12] was above 30 µM each time. In addition, the AC50 in experiment [13] and in experiment [14] was above 30 µM throughout.

In the case of `CC(C)OC(=O)C(C(=O)OC(C)C)=C1SC=CS1` [MALOTILATE], the half-maximal activity concentration (AC50) in experiment [1], in experiment [2], in experiment [3], in [4], in experiment [5] and in [6] was above 30 µM throughout. The AC50 in experiment [7], in experiment [8], in experiment [9], in experiment [10], in [11] and in [12] was above 30 µM throughout. Also, the AC50 in experiment [13] and in experiment [14] was above 30 µM throughout.

Take `CC(=O)Nc1c(I)c(C(=O)N[C@H]2C(O)O[C@H](CO)[C@@H](O)[C@@H]2O)c(I)c(N(C)C(C)=O)c1I` (stereo not given in full) [METRIZAMIDE]: the AC50 in [1], in experiment [2], in experiment [3], in experiment [4], in [5] and in [6] was above 10 µM throughout. In addition, the AC50 was above 10 µM in [7]; above 30 µM in experiment [8]; above 10 µM in [9]; above 10 µM in experiment [10]; above 10 µM in [11]; above 10 µM in experiment [12]. Moreover, the concentration at half-maximal activity (AC50) in experiment [13] and in experiment [14] was above 30 µM each time.

On to `CN(c1nccc(=O)[nH]1)C1CCN(c2nc3ccccc3n2Cc2ccc(F)cc2)CC1` [MIZOLASTINE], for which the AC50 in [1], in experiment [2], in experiment [3], in experiment [4], in experiment [5] and in experiment [6] was above 30 µM throughout. In addition, the AC50 in experiment [7] is 17 µM; in [8] it was 3.34 µM; in experiment [9] it was above 30 µM; in experiment [10], above 30 µM; in [11] it was above 30 µM; in experiment [12], above 30 µM. The AC50 in experiment [13] was 6.1 µM; in experiment [14], above 30 µM.
